The values below come from patent publication US20090318385A1, “Pyrazolopyride derivative and phosphodiesterase ( pde) inhibitors containing the same as active ingredient” (priority 2006, published 2009).

The structures appear in SMILES notation. pIC50: −log10 of the molar value. Bounds are passed on as bounds.

Experiment [1] concerns histamine-induced bronchoconstriction. Briefly: Histamine-induced airway contraction reaction in guinea pigs. Type of experiment: in vivo. Conditions: test compound 1 mg/kg i.v., histamine 12.5 μg/kg i.v., airflow 30 seconds after administration. The method, then: Guinea pigs were anesthetized with pentobarbital (30 mg/kg, i.p.). A cannula for intravenous administration, a cannula for collecting blood and measuring blood pressure, and a tracheal cannula were inserted into the left external jugular vein, right internal carotid artery, and trachea, respectively. The guinea pigs were maintained on artificial respiration under the conditions of 60 times/min and 10 mL/kg/stroke. The airflow from the side branch of the tracheal cannula was measured by a bronchospasm transducer (Ugo-Basile) and recorded on a computer via Power Lab (ADInstruments Japan). The guinea pigs were immobilized with gallamine (10 mg/kg, i.v.), and histamine was administered at 10-minute intervals (12.5 μg/kg, i.v.). After the histamine-induced bronchoconstriction was constant, one of the test compounds (1 mg/kg, i.v.) dissolved in DMSO was administered. We examined the inhibitory action of test compounds on histamine-induced bronchoconstriction 30 seconds after compounds administration. Bronchoconstriction was recorded as the value of airflow, and the results were represented by the ratio of the maximum value of the histamine-induced airflow 30 seconds after the administration to the maximum value of the airflow before the administration. When the inhibition ratio≧90%, the results were represented by “+++.” When 90%>the inhibition ratio≧70%, the results were represented by “++.” When 70%>the inhibition ratio≧30%, the results were represented by “+.”

Another experiment concerns the target T1, PDE4B catalytic domain (Homo sapiens, UniProt Q07343).
T1 construct: The cDNA of PDE4B catalytic domain (hereinafter abbreviated as Cat) was isolated from human RNA by RT-PCR; made in house; host or cells: Sf9 insect cells (baculovirus, Bac-to-Bac)
The experiment is described as follows: Phosphodiesterase inhibitory activity (recombinant PDE4Bcat, [3H]cAMP). It is filed as biochemical. Conditions: 30° C. for 20 minutes, read-out: IC50 (μmol/L) PDE4. The source says:
The cDNA of PDE4B catalytic domain (hereinafter abbreviated as Cat) was isolated from human RNA by RT-PCR. The isolated cDNA fragments were inserted into Sf9 insect cells using Gateway system (product of Invitrogen Corporation) and Bac-to-Bac (registered trademark) Baculovirus Expression system (product of Invitrogen Corporation) to express a target PDE protein. The recombinant PDE4Bcat was purified from the culture supernatants or cell extracts of Sf9 cells expressing high levels of the PDE protein by ion exchange chromatography and was used for the following experiments.
A 4 mmol/L solution of each test compound was serially diluted four-fold with a 15% DMSO solution to prepare solutions with concentrations of 15 nmol/L to 4 mmol/L (the final concentrations used in the experiments were 1.5 nmol/L to 400 μmol/L). 10 μL of the prepared test compound solutions, [^3H] cAMP diluted with a buffer solution (40 mmol/L Tris-HCl (pH: 7.4), 10 mmol/L MgCl2), and 40 μL of the recombinant human PDE protein (2×10^−6 units, 1 unit is defined as the amount of PDE that breaks down 1 μmol/L of cAMP in one minute under the conditions of a pH of 7.5 and 30° C.) were added to a 96-well plate. The mixtures were reacted at 30° C. for 20 minutes. Then, the resultant mixtures were reacted at 65° C. for 2 minutes. Subsequently, […] of 1 mg/mL 5′-nucleotidase (Crotalusatrox venom, product of Sigma) was added to the mixtures, and the mixtures were reacted at 30° C. for 10 minutes. After completion of the reaction, 200 μL of a solution of Dowex (300 mg/mL Dowex 1x8-400 (product of Sigma Aldrich), 33% ethanol) was added to the mixtures, and the mixtures were shaken at 4° C. for 20 minutes. Subsequently, 200 μL of MicroScint 20 (product of Packard) was added to the mixtures, and measurement was performed using a scintillation counter (Topcount, product of Packard). IC50 values were calculated using Graph Pad Prism v3.03 (product of GraphPad Software). When 1 μmol/L>the IC50 value≧0.1 μmol/L, the results were represented by “+.” When 0.1 μmol/L>the IC50 value, the results were represented by “++.”

The test system of experiment [2] is total number of leukocytes in bronchoalveolar lavage fluid after LPS inhalation. The experiment is described as follows: LPS acute inflammation model in rats. Type of experiment: in vivo. Particulars: Rattus norvegicus, Leukocyte, po, 3 mg/kg orally one hour before LPS inhalation, total leukocytes in BALF 3 hours after LPS inhalation, read-out: Inhibition ratio. The procedure:
3 mg/kg of the compounds were orally administered to rats one hour before inhalation of lipopolysaccharide (LPS) from E. coli serotype 055:B5, rats were inhalted nebulizing LPS solution (50 mL) by nebulizer for 30 minutes. Then, 3 hours after the LPS inhalation, rats were euthanized with 20% urethane (5 ml/rat, i.p.) 5 ml of physiological saline for bronchoalveolar lavage was injected into the bronchoalveolar space through the airway, and the bronchoalveolar space was washed 3 times using a 5 mL syringe. This procedure was repeated twice, and the solution was collected as bronchoalveolar lavage fluid (BALF). The collected BALF was centrifuged at 1,200 rpm and 4° C. for 10 minutes (Hirtachi; himac CR 5 DL). The sediment was re-suspended in 10 mL of a 0.1% bovine serum albumin-physiological saline, and an equivalent amount of Turk's solution was added to the suspension to stain leukocytes. The total number of leukocytes was counted under a microscope to determine the inhibition ratio. When the inhibition ratio≧60%, the results were represented by “++.” When 60%>the inhibition ratio≧30%, the results were represented by “+.”

T1 sequence (Q07343 330-659 limits assumed): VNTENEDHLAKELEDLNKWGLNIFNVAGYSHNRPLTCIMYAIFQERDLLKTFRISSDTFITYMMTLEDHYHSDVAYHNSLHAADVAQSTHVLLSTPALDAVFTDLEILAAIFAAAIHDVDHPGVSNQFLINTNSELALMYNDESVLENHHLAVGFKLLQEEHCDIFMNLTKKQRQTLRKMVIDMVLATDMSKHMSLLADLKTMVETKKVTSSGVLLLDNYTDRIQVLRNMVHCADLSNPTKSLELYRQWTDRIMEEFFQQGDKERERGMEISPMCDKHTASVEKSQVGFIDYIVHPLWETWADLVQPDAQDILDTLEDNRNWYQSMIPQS

`COc1ccc(C(O)Cc2ccncc2)c2cc(C(F)(F)F)nn12` (centres unmarked) [Example 77, 1-(7-Methoxy-2-trifluoromethylpyrazolo[1,5-a]pyridin-4-yl)-2-(pyridin-4-yl)ethanol]: the Inhibition ratio entry in experiment [1] is “+ (When 70%>the inhibition ratio≧30%, the results were represented by “+.”)”. Besides, on PDE4B catalytic domain, the pIC50 was 6.00 to 7.00.

For the compound `COc1ccc(C=Cc2ccncc2)c2cc(C(F)(F)F)nn12` [Example 78, 7-Methoxy-4-[(2-pyridin-4-yl)vinyl]-2-trifluoromethylpyrazolo[1,5-a]pyridine], the Inhibition ratio entry in experiment [1] is given as “+ (When 70%>the inhibition ratio≧30%, the results were represented by “+.”)”. Also, in experiment [2], the inhibition in vivo at 3 mg/kg was in the range of 30 to 60%. Further, on PDE4B catalytic domain, the pIC50 is over 7.00.

In the case of `COc1ccc(CCc2ccncc2)c2cc(C(F)(F)F)nn12` [Example 79, 7-Methoxy-4-[(2-pyridin-4-yl)ethyl]-2-trifluoromethylpyrazolo[1,5-a]pyridine], the Inhibition ratio result in experiment [1] is listed as “+ (When 70%>the inhibition ratio≧30%, the results were represented by “+.”)”. Moreover, in experiment [2], the inhibition in vivo at 3 mg/kg is at least 60%. Moreover, the pIC50 at PDE4B catalytic domain is over 7.00.

In the case of `COc1ccc(C(=O)Cc2c(Cl)cncc2Cl)c2cc(C(F)(F)F)nn12` [Example 88, 2-(3,5-Dichloropyridin-4-yl)-1-(7-methoxy-2-trifluoromethylpyrazolo[1,5-a]pyridin-4-yl)ethanone], in experiment [1], the Inhibition ratio entry is “++ (When 90%>the inhibition ratio≧70%, the results were represented by “++.”)”. Further, the inhibition in vivo at 3 mg/kg in experiment [2] is at least 60%. For the same compound, the pIC50 at PDE4B catalytic domain is over 7.00.

Regarding `COc1ccc(/C=C/c2c(Cl)cncc2Cl)c2cc(C(F)(F)F)nn12` [Example 89, (E)-4-[2-(3,5-dichloropyridin-4-yl)vinyl]-7-methoxy-2-trifluoromethylpyrazolo[1,5-a]pyridine], the Inhibition ratio entry in experiment [1] is on record as “+ (When 70%>the inhibition ratio≧30%, the results were represented by “+.”)”. Also, in experiment [2], the inhibition in vivo at 3 mg/kg was 30 to 60%. Further, the pIC50 at PDE4B catalytic domain was over 7.00.
